Assay results from patent US20230135152A1 (ACURASTEM INCORPORATED, priority 2020, published 2023).
pEC50: −log10 of the molar value.

Assays:
PIKFYVE [1] = target: T1, PIKFYVE (Homo sapiens, UniProt Q9Y2I7); assay: PIKFYVE assay (luciferase ADP-Glo kinase assay, Promega); assay type: biochemical; details: Table 3
Outline: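 Kinase activity measured with a luciferase-based ADP-Glo read-out, which quantifies ADP formed by the enzyme.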

PIKFYVE [2] = target: T1, PIKFYVE; assay: Cell-based Pikfyve inhibition activity assay (EEA1 staining, mean vesicle size in BJ fibroblast cells); details: Table 4, 4 hours treatment, 3 μM Apilimod = 100% inhibition
Outline: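 BJ fibroblasts treated 4 h at 37° C with eleven 3-fold doses (0.03-3000 nM), then fixed and stained for EEA1. Confocal images (20×, 16 tiles/well) analysed for mean vesicle size. Normalised to 0.5% DMSO (0%) and 3 μM apilimod (100%); dose-response fitted with variable slope.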

T1 sequence (Q9Y2I7 whole entry): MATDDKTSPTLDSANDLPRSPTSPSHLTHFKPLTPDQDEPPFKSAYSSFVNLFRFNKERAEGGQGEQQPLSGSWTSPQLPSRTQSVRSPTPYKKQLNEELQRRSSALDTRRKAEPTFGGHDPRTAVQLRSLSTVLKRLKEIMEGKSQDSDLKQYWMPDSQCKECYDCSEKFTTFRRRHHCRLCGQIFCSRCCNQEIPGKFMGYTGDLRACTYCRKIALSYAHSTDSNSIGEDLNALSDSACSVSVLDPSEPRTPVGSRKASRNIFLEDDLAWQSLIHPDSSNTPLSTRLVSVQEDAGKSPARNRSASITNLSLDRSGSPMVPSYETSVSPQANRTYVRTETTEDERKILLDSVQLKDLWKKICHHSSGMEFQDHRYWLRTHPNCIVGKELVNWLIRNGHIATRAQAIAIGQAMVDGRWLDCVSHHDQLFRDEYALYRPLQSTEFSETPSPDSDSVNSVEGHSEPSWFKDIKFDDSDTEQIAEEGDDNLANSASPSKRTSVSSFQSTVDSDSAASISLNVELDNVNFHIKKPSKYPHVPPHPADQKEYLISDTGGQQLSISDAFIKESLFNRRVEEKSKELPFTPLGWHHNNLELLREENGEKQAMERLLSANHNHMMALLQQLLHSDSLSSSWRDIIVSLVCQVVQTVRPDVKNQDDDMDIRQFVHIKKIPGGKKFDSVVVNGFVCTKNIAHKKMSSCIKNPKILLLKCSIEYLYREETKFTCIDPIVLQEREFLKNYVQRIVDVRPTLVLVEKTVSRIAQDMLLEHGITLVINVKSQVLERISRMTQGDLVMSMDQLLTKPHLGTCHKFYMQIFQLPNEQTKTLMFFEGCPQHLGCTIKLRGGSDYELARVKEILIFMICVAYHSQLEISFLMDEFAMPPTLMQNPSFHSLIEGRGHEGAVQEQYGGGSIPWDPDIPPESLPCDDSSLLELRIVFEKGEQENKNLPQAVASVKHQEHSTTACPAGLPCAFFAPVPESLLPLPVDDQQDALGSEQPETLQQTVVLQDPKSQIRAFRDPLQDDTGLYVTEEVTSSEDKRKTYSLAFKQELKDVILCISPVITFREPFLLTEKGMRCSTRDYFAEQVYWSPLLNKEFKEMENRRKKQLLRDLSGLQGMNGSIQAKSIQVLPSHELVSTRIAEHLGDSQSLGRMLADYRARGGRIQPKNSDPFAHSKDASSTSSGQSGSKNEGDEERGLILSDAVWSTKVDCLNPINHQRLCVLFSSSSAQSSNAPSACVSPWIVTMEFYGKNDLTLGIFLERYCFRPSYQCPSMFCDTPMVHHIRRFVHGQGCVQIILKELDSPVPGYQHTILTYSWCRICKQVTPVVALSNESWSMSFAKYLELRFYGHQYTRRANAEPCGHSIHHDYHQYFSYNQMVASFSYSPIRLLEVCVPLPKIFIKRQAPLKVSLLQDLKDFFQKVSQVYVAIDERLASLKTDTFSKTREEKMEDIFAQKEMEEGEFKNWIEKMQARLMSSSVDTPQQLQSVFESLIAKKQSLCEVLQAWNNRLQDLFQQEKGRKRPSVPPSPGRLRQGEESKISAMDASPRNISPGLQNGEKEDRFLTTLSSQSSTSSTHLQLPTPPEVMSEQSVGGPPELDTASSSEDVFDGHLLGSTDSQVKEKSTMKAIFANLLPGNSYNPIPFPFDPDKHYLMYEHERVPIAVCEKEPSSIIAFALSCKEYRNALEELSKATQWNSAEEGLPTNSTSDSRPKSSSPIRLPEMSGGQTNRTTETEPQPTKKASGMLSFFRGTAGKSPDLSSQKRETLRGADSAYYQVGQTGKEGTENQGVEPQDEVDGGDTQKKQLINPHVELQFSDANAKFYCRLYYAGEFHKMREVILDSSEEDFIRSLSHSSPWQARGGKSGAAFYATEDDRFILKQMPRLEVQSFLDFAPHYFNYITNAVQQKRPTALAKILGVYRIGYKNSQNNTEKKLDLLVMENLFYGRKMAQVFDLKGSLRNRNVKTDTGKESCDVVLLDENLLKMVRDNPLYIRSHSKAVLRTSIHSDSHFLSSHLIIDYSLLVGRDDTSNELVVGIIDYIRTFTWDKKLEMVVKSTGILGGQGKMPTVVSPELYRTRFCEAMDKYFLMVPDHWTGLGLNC

## Cc1cccc(-c2ccn(-c3cc(N4CCOCC4)nc(-n4cnc(CCO)c4)n3)n2)c1 [Compound 339, 2-(1-(4-morpholino-6-(3-(m-tolyl)-1H-pyrazol-1-yl)pyrimidin-2-yl)-1H-imidazol-4-yl)ethan-1-ol]
PIKFYVE [1]
  IC50: 3 to 10 nM
PIKFYVE [2]
  pEC50: 6.30 to 7.00

## Cc1cccc(Oc2ccn(-c3cc(N4CCOCC4)nc(OCCc4cnn(C)c4)n3)n2)c1 [Compound 346]
PIKFYVE [1]
  IC50: < 3 nM
PIKFYVE [2]
  pEC50: 7.00 to 7.70

## COC(C)(C)c1nc(N2CCOCC2)cc(-n2ccc(-c3cccc(C)c3)n2)n1 [Compound 347, 4-(2-(2-methoxypropan-2-yl)-6-(3-(m-tolyl)-1H-pyrazol-1-yl)pyrimidin-4-yl)morpholine]
PIKFYVE [1]
  IC50: 3 to 10 nM
PIKFYVE [2]
  pEC50: 6.30 to 7.00
